Measured values taken from patent publication US20230148605A1, “APPLICATION OF GERANIOL IN PREPARATION OF FORMULATION FOR PROMOTING SYNTHESIS OF PSEUDOMONAS AERUGINOSA 3OC12-HSL SIGNAL MOLECULES” (priority 2021, published 2023).

What was measured:
Type in all cases: cell-based
[1] = tested on: key genes in the Pseudomonas aeruginosa quorum sensing system and virulent genes regulated thereby; assay: Influence of geraniol on expression of key quorum sensing genes and regulated virulent genes (real-time fluorescent quantitative PCR); conditions: low concentration of geraniol (0.313 to 2.5 μL/mL), PAO1; concluded from the experiments
[2] = tested on: key genes in the Pseudomonas aeruginosa quorum sensing system and virulent genes regulated thereby; assay: as above; conditions: 1.25 μL/mL geraniol, 5 h, PAO1
Method: The PAO1 bacterial suspension in a logarithmic growth phase was added to 50 mL sterile LB liquid medium to make a final concentration of the bacterial solution reach 10^6 CFU/mL. Geraniol was added to make a final concentration become 0 μL/mL (three biological replicates in a control group were respectively named A1, A2 and A3) and 1.25 μL/mL (three biological replicates in an experimental group were respectively named B1, B2 and B3); the respective groups were cultured at 37° C. and 180 rpm for 5 h, centrifuged to collect Bacteria, and then snap-frozen at −80° C. for later use.
Total bacterial RNA was extracted with a kit of Trizol (Thermo Company). After extraction, purity of RNA was detected with an ultra-micro spectrophotometer (Implen, Munich, Germany). An A260/A280 value of each RNA sample should be between 1.8 and 2.0. Reverse transcription and real-time fluorescent quantitative PCR amplification were performed with the PrimeScript RT Master Mix kit (Takara, Dalian, China) and the ETC 811 PCR instrument (Beijing Eastwin Life Sciences, Inc.). A q-PCR reaction system adopted Takara's SYBR Premix Ex TaqII (Tli RNaseH Plus) (Code No. RR820A); the PCR program was pre-denaturation at 95° C. for 30 s; denaturation at 95° C. for 5 s, annealing at 60° C. for 34 s, 40 loops; according to the 10 gene sequences already published on the GenBank website, primers for q-PCR were designed with Primer Premier 5.0 software, and meanwhile, the 16SrRNA gene was used as an internal reference gene.
Table 1 Genes and primer sequences thereof used in real-time fluorescent quantitative PCR

[3] = tested on: Pseudomonas aeruginosa PAO1; assay: Influence of geraniol on Pseudomonas aeruginosa PAO1 growth (growth curve, OD600, Bioscreen C)
Method: An LB medium and geraniol were respectively added to test tubes, joined with the PAO1 bacterial suspension in the exponential growth phase, to make total volumes all reach 10 mL, so that PAO1 bacterial concentrations were all 10^6 CFU/mL, and concentrations of geraniol were respectively 0 μL/mL (control), 0.313 μL/mL, 0.625 μL/mL, 1.25 μL/mL, and 2.5 μL/mL. Samples from the experimental groups were respectively added to a honeycomb culture plate dedicated to an automatic growth curve analyzer (Bioscreen C), which has each well added with 350 μL culture medium; and each experimental group has three parallel experiments. The honeycomb culture plate was placed in the automatic growth curve analyzer, for shaking culture at 37° C. for 3 days, with OD600 measured every hour. Taking OD600 as an ordinate and culture time as an abscissa, a growth curve of PAO1 under an action of geraniol was drawn to study influence of geraniol on PAO1 growth.

CC(C)=CCC/C(C)=C/CO [geraniol, Geraniol]
synthesis of 3OC12-HSL signal molecules [1]: significantly promote synthesis | expression level of pelF [2]: not significantly down-regulated | expression level of pslB [2]: not significantly down-regulated | expression level of the signal molecule synthase encoding gene rhl (rhl system) [2]: does not change significantly | expression level of toxA [2]: not significantly down-regulated | expression level of virulent gene chiC [2]: significantly down-regulated | expression level of virulent gene lasA [2]: significantly down-regulated | expression level of virulent gene lasB [2]: significantly down-regulated | expression level of virulent gene phzM [2]: significantly down-regulated | expression of lasI (signal molecule synthase gene, las system) [2]: up-regulated | expression of lasR (signal molecule receptor protein gene, las system) [2]: down-regulated | expression of pqsA (signal molecule synthase gene, pqs system) [2]: down-regulated | expression of pqsR (signal molecule receptor protein gene, pqs system) [2]: up-regulated | expression of rhlR (signal molecule receptor protein gene, rhl system) [2]: down-regulated | growth of PAO1 cells (OD600 growth curve) ([3]; geraniol 0.313, 0.625, 1.25 and 2.5 μL/mL, LB, 37° C., 3 days): slightly inhibit growth | concentration dependence of effect on growth of PAO1 cells ([3]; geraniol 0.313 to 2.5 μL/mL): concentration-dependent inhibitory effect | antibacterial activity compared with other geraniol groups ([3]; geraniol 2.5 μL/mL): highest antibacterial activity | bacterial proliferation rate in the logarithmic growth phase ([3]; geraniol 2.5 μL/mL, versus other groups): significantly lower than other groups
